Laboratory results: US5620864A, “Acceptor for fucosyl transferase” (Health Research, Inc., priority 1992, dated 1997)

How the values were obtained:
[1] = molecular target: T1, serum α1,3-L-fucosyltransferase (Homo sapiens, UniProt P51993); assay: Assay of α1,3-fucosyltransferase with various synthetic acceptors, ovarian cancer sera as enzyme source; type: biochemical; conditions: acceptor 0.3 mM, 37° C. 18 h
T1 construct: Sera were collected from healthy females and ovarian cancer patients; from tissue; host or cells: blood serum of ovarian cancer patients and healthy females
T1 sequence (P51993 35-359 limits assumed): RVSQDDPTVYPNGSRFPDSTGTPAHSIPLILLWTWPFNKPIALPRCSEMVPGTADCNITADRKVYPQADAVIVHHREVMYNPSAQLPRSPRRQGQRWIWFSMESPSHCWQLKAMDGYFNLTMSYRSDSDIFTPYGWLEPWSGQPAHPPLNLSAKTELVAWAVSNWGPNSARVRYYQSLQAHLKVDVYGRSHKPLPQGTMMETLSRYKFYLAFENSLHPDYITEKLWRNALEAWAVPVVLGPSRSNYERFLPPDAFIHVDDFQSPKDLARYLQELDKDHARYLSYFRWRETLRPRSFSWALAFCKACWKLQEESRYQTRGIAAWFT

[2] = system: α1,3-L-fucosyltransferase of the particulate fraction of ovarian tumor; assay: Assay of α1,3-fucosyltransferase with synthetic acceptors, ovarian tumor particulate fraction; type: biochemical, human
[3] = system: serum α1,3-L-fucosyltransferase; assay: Acceptor ability in presence of the competitive substrate (3'-sulfo LacNAc vs 2'-methyl LacNAc), ovarian cancer sera; type: biochemical, human
Method: (§1) An incubation mixture contained 50 mM HEPES-NaOH, pH 7.5, 5 mM MnC12, 7 mM ATP, 3 mM NaN3, the acceptor 0.3 mM (for serum enzyme) or 3.0 mM (for tumor enzyme), 0.125 μCi of GDP-[U-^14 C] Fuc (Sp. Act. 216 mCi/mmol) and enzyme in a total volume of 0.10 ml; the control incubation mixture had everything except the acceptor. At the end of incubation at 37° C. for 18 h, the mixture was diluted with 1 ml water and passed through Dowex-1-C1 column (1 ml in a Pasteur pipet). The column was washed twice with 1 ml water; the breakthrough and wash, which contained the [^14 C] fucosylated neutral acceptor, were collected together in a scintillation vial and counted for radioactivity using the scintillation coctail 3a70 (Research Products International, Mount Prospects, Ill.) and Beckman LS9000. The Dowex column was then eluted successively with 3 ml each of 0.1M and 0.2M NaCl; these eluates which contained the [^14 C] fucosylated sulfated acceptors, were counted for radioactivity as before. Corrections were made by subtracting the radioactivity in the water and NaCl eluates of the control incubation mixture from the corresponding test fractions. The duplicate runs of samples gave almost identical values, the difference being <5%.
(§2) The superiority of 3'-sulfo LacNAc over 2'-methyl LacNAc as the substrate for measuring serum α1,3 fucosyltransferase was tested in three different ways. First, the incubation mixtures in duplicate contained 0.3 mM 3'-sulfo LacNAc and varying amounts of 2'-methyl LacNAc (0 to 7.5 mM); the incorporation of [^14 C] fucose by the serum enzyme into both substrates was measured (Table III). The incorporation of [^14 C] fucose into 3'-sulfo LacNAc decreased and into 2'-methyl LacNAc increased with the increase in the concentration of the latter. […] 25 fold less than 2' methyl LacNAc. Secondly, the incubation mixtures in duplicate contained 3.0 mM 2'-methyl LacNAc and varying amounts of 3'-sulfo LacNAc (0 to 0.75 mM); the incorporation of [^14 C] fucose by the same serum enzyme into both substrates was measured (Table III). The [^14 C] fucose incorporation into 2'-methyl LacNAc decreased and into 3'-sulfo LacNAc increased by increasing the concentration of the latter. […] Thirdly, both 2'-methyl LacNAc and 3'-sulfo LacNAc at 0.3 mM concentration were incubated separately in duplicates with six ovarian cancer sera and one normal serum; the incorporation of [^14 C] fucose into these acceptors were quantitated (Table IV). The [^14 C] fucose incorporation into 3'-sulfo LacNAc was consistently higher (4-5 fold) than that into 2'-methyl LacNAc, including the assay of the normal serum. […] These values indicate that 3'-sulfo LacNAc is a very high affinity acceptor for α1,3 fucosyltransferase. The [^14 C] fucosylated product arising from 3'-sulfo LacNAc has been tentatively identified as 3'-sulfo, 3-fucosyl LacNAc by comparing strictly its mobility on paper with the synthetic authentic compound 3'-sulfo, 3-fucosyl LacNAc (see FIG. 5).

[4] = molecular target: T1, serum α1,3-L-fucosyltransferase; assay: Detection of serum α1,3-L-fucosyltransferase in six ovarian cancer sera and one normal serum; type: biochemical; conditions: for percentage of the ratio between the CPM obtained for cancer serum and normal serum: acceptor 0.30 mM
Method: Sera were collected from healthy females and ovarian cancer patients admitted to Roswell Park Cancer Institute in Buffalo, N.Y., USA. Ovarian tumor tissues were obtained during surgical procedures from patients with ovarian cancer. Both sera and tissues were stored frozen at -70° C. until use.
as §1, §2

CO[C@H]1[C@H](O[C@H]2[C@H](O)[C@@H](NC(C)=O)C(O)O[C@@H]2CO)O[C@H](CO)[C@H](O)[C@@H]1O (some centres unmarked) [2'-methyl LacNAc]
[14C] Fucose Incorporated (CPM) [1]: 1730 CPM | Relative Percent ([2]; 2'-methyl LacNAc = 100): 100% | [14C] Fucose Incorporated (CPM) ([2]; acceptor 3.0 mM, 37° C. 18 h): 48252 CPM | Incorporation of [14C] Fucose (CPM) ([3]; 2'-Methyl LacNAc 3.0 mM + 3'-Sulfo LacNAc 0 mM): 3664 CPM | Incorporation of [14C] Fucose (CPM) ([3]; 2'-Methyl LacNAc 3.0 mM + 3'-Sulfo LacNAc 0.15 mM): 2581 CPM | Incorporation of [14C] Fucose (CPM) ([3]; 2'-Methyl LacNAc 3.0 mM + 3'-Sulfo LacNAc 0.30 mM): 2191 CPM | Incorporation of [14C] Fucose (CPM) ([3]; 2'-Methyl LacNAc 3.0 mM + 3'-Sulfo LacNAc 0.45 mM): 1737 CPM | Incorporation of [14C] Fucose (CPM) ([3]; 2'-Methyl LacNAc 3.0 mM + 3'-Sulfo LacNAc 0.65 mM): 1184 CPM | Incorporation of [14C] Fucose (CPM) ([3]; 2'-Methyl LacNAc 3.0 mM + 3'-Sulfo LacNAc 0.75 mM): 1187 CPM | inhibition of the [14C] fucose incorporation into 3'-sulfo LacNAc ([3]; 2'-methyl LacNAc 7.5 mM, 3'-sulfo LacNAc 0.3 mM): 43% | Km ([3]; 2'-methyl LacNAc in presence of 0.3 mM 3'-sulfo LacNAc, serum enzyme): 6.67 mM | Incorporation of [14C] Fucose (CPM) ([3]; 3'-Sulfo LacNAc 0.3 mM + 2'-Methyl LacNAc 0 mM): 157 CPM | Incorporation of [14C] Fucose (CPM) ([3]; 3'-Sulfo LacNAc 0.3 mM + 2'-Methyl LacNAc 1.5 mM): 1143 CPM | Incorporation of [14C] Fucose (CPM) ([3]; 3'-Sulfo LacNAc 0.3 mM + 2'-Methyl LacNAc 3.0 mM): 1614 CPM | Incorporation of [14C] Fucose (CPM) ([3]; 3'-Sulfo LacNAc 0.3 mM + 2'-Methyl LacNAc 4.5 mM): 1973 CPM | Incorporation of [14C] Fucose (CPM) ([3]; 3'-Sulfo LacNAc 0.3 mM + 2'-Methyl LacNAc 6.0 mM): 2698 CPM | Incorporation of [14C] Fucose (CPM) ([3]; 3'-Sulfo LacNAc 0.3 mM + 2'-Methyl LacNAc 7.5 mM): 2788 CPM | inhibition by 2'-methyl LacNAc of incorporation into 3'-sulfo LacNAc ([3]; 3'-sulfo LacNAc present at 3.0 mM): no inhibition | Incorporation of [14C] Fucose (CPM) into the Acceptor (0.30 mM) ([4]; Normal Serum): 397 CPM | Incorporation of [14C] Fucose (CPM) into the Acceptor (0.30 mM) ([4]; Ovarian Cancer Serum 1): 1325 CPM | percentage of the ratio between the CPM obtained for cancer serum and normal serum ([4]; Ovarian Cancer Serum 1): 334% | Incorporation of [14C] Fucose (CPM) into the Acceptor (0.30 mM) ([4]; Ovarian Cancer Serum 2): 1724 CPM | percentage of the ratio between the CPM obtained for cancer serum and normal serum ([4]; Ovarian Cancer Serum 2): 434% | Incorporation of [14C] Fucose (CPM) into the Acceptor (0.30 mM) ([4]; Ovarian Cancer Serum 3): 1359 CPM | percentage of the ratio between the CPM obtained for cancer serum and normal serum ([4]; Ovarian Cancer Serum 3): 342% | Incorporation of [14C] Fucose (CPM) into the Acceptor (0.30 mM) ([4]; Ovarian Cancer Serum 4): 1347 CPM | percentage of the ratio between the CPM obtained for cancer serum and normal serum ([4]; Ovarian Cancer Serum 4): 339% | Incorporation of [14C] Fucose (CPM) into the Acceptor (0.30 mM) ([4]; Ovarian Cancer Serum 5): 699 CPM | percentage of the ratio between the CPM obtained for cancer serum and normal serum ([4]; Ovarian Cancer Serum 5): 176% | Incorporation of [14C] Fucose (CPM) into the Acceptor (0.30 mM) ([4]; Ovarian Cancer Serum 6): 975 CPM | percentage of the ratio between the CPM obtained for cancer serum and normal serum ([4]; Ovarian Cancer Serum 6): 246% | α1,3 fucosyltransferase activity of the cancer sera as compared to the normal serum ([4]; range over six ovarian cancer sera, acceptor 0.3 mM): 176%-434%
